Measured values as given in US5358951A, “Angiotensin II receptor blocking 2, 3, 6 substituted quinazolinones” (American Cyanamid Company, priority 1993, dated 1994).

Test system: vasopressor response of angiotensin II
Experiment: AII Challenge: antagonism of angiotensin II vasopressor response;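 as to Response Average Change: post-dose Angiotensin II-evoked rise in systolic blood pressure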
Format: in vivo
Conditions: 3 mg/kg I.V.; for inhibition in vivo at 3 mg/kg: Rattus norvegicus, iv
Outline: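 Conscious male SHR (16-20 weeks) with aortic and caval cannulae received angiotensin II at 0.05 and 0.1 ug/kg i.v. before and 30-300 min after compound dosing (i.v., i.p. or oral). Blockade is expressed as % of each rat's predose rise in systolic pressure.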

[1] = AII 0.05 mcg/kg IV, 30 min post dose
[2] = AII 0.05 mcg/kg IV, 60 min post dose
[3] = AII 0.05 mcg/kg IV, 90 min post dose
[4] = AII 0.05 mcg/kg IV, 120 min post dose
[5] = AII 0.05 mcg/kg IV, 180 min post dose
[6] = AII 0.05 mcg/kg IV, 240 min post dose
[7] = AII 0.05 mcg/kg IV, 300 min post dose
[8] = AII 0.1 mcg/kg IV, 30 min post dose
[9] = AII 0.1 mcg/kg IV, 60 min post dose
[10] = AII 0.1 mcg/kg IV, 90 min post dose
[11] = AII 0.1 mcg/kg IV, 120 min post dose
[12] = AII 0.1 mcg/kg IV, 180 min post dose
[13] = AII 0.1 mcg/kg IV, 240 min post dose
[14] = AII 0.1 mcg/kg IV, 300 min post dose
[15] = 0.5 h, AII 0.05 mcg/kg IV, 30 min post dose
[16] = 0.5 h, AII 0.1 mcg/kg IV, 30 min post dose
[17] = 1 h, AII 0.05 mcg/kg IV, 60 min post dose
[18] = 1 h, AII 0.1 mcg/kg IV, 60 min post dose
[19] = 2 h, AII 0.05 mcg/kg IV, 120 min post dose
[20] = 2 h, AII 0.1 mcg/kg IV, 120 min post dose
[21] = 3 h, AII 0.05 mcg/kg IV, 180 min post dose
[22] = 3 h, AII 0.1 mcg/kg IV, 180 min post dose
[23] = 4 h, AII 0.05 mcg/kg IV, 240 min post dose
[24] = 4 h, AII 0.1 mcg/kg IV, 240 min post dose
[25] = 5 h, AII 0.05 mcg/kg IV, 300 min post dose
[26] = 5 h, AII 0.1 mcg/kg IV, 300 min post dose
[27] = […], AII 0.05 mcg/kg IV, 90 min post dose
[28] = […], AII 0.1 mcg/kg IV, 90 min post dose

Row | SMILES | Response Average Change [1] [mmHg] | Response Average Change [2] [mmHg] | Response Average Change [3] [mmHg] | Response Average Change [4] [mmHg] | Response Average Change [5] [mmHg] | Response Average Change [6] [mmHg] | Response Average Change [7] [mmHg] | Response Average Change [8] [mmHg] | Response Average Change [9] [mmHg] | Response Average Change [10] [mmHg] | Response Average Change [11] [mmHg] | Response Average Change [12] [mmHg] | Response Average Change [13] [mmHg] | Response Average Change [14] [mmHg] | inhibition in vivo at 3 mg/kg [15] [%] | inhibition in vivo at 3 mg/kg [16] [%] | inhibition in vivo at 3 mg/kg [17] [%] | inhibition in vivo at 3 mg/kg [18] [%] | inhibition in vivo at 3 mg/kg [19] [%] | inhibition in vivo at 3 mg/kg [20] [%] | further results
1 | CCCCc1nc2ccc([C@@]3(C)C[C@@H]4CCCCN4O3)cc2c(=O)n1Cc1ccc(-c2ccccc2-c2nnn[nH]2)cc1 (relative stereo) [Example 67, Cis-2-Butyl-6-(hexahydro-2-methyl-2H-isoxazolo[2,3-a]pyridin-2-yl)-3-[[2'-(1H-tetrazol-5-yl)[1,1'-biphenyl]-4-yl]methyl]-4(3H)-quinazolinone] | 20 | 7.5 | 7.5 | 12.5 | 15 | 7.5 | 14 | 14 | 15 | 12.5 | 10 | 11.5 | 11 | 17.5 | 61 | 77 | 85 | 75 | 76 | 83 | inhibition in vivo at 3 mg/kg [21]: 71%; inhibition in vivo at 3 mg/kg [22]: 81%; inhibition in vivo at 3 mg/kg [23]: 85%; inhibition in vivo at 3 mg/kg [24]: 82%; inhibition in vivo at 3 mg/kg [25]: 73%; inhibition in vivo at 3 mg/kg [26]: 71%; inhibition in vivo at 3 mg/kg [27]: 85%; inhibition in vivo at 3 mg/kg [28]: 79%
2 | CCCCc1nc2ccc([C@]3(C)C[C@@H]4CCCCN4O3)cc2c(=O)n1Cc1ccc(-c2ccccc2-c2nnn[nH]2)cc1 (relative stereo) [Example 68, Trans-2-Butyl-6-(hexahydro-2-methyl-2H-isoxazolo[2,3-a]pyridin-2-yl)-3-[[2'-(1H-tetrazol-5-yl)[1,1'-biphenyl]-4-yl]methyl]-4(3H)-quinazolinone] | 2.5 | 2.5 | 7.5 | 11 | 10 | 20 | 10 | 5 | 9 | 9 | 10 | 20 | 17.5 | 22.5 | 95 | 91 | 95 | 84 | 79 | 82 | inhibition in vivo at 3 mg/kg [21]: 81%; inhibition in vivo at 3 mg/kg [22]: 64%; inhibition in vivo at 3 mg/kg [23]: 61%; inhibition in vivo at 3 mg/kg [24]: 69%; inhibition in vivo at 3 mg/kg [25]: 81%; inhibition in vivo at 3 mg/kg [26]: 60%; inhibition in vivo at 3 mg/kg [27]: 85%; inhibition in vivo at 3 mg/kg [28]: 84%
3 | CCCCc1nc2ccc([C@]3(C)C[C@@H]4CCC(C)(C)N4O3)cc2c(=O)n1Cc1ccc(-c2ccccc2-c2nnn[nH]2)cc1 (relative stereo) [Example 69, Trans-2-Butyl-6-(hexahydro-2,6,6-trimethylpyrrolo[1,2-b]isoxazol-2-yl)-3-[[2'-(1H-tetrazol-5-yl)[1,1'-biphenyl]-4-yl]methyl]-4(3H)-quinazolinone] | 0 | 2.5 | 2.5 | 5 | 2.5 | 5 | 10 | 0 | 0 | 25 | 2.5 | 0 | 7.5 | 12.5 | 100 | 100 | 92 | 100 | 83 | 94 | inhibition in vivo at 3 mg/kg [21]: 92%; inhibition in vivo at 3 mg/kg [22]: 100%; inhibition in vivo at 3 mg/kg [23]: 83%; inhibition in vivo at 3 mg/kg [24]: 81%; inhibition in vivo at 3 mg/kg [25]: 67%; inhibition in vivo at 3 mg/kg [26]: 69%; inhibition in vivo at 3 mg/kg [27]: 92%; inhibition in vivo at 3 mg/kg [28]: 94%
